Assay results from patent US12543736B2, “Herbicidal compositions comprising mesotrione” (BASF SE, priority 2024, dated 2026).

Experiments:
Type in all cases: in vivo
Echinochloa crus-galli [1] = test: Example 3 post-emergence field trial, ECHCG; conditions: height 15-20 cm
Protocol: (§1) In the examples below, using the method of S. R. Colby (1967) “Calculating synergistic and antagonistic responses of herbicide combinations”, Weeds 15, p. 22ff., the value E, which is expected if the activity of the individual active compounds is only additive, was calculated: [formula] • where • X=percent activity using active herbicide A at an application rate a; • Y=percent activity using active herbicide B (e.g. mesotrione) at an application rate b; • E=expected activity (in %) by A+B at application rates a+b. If the value found experimentally is higher than the value E calculated according to Colby, a synergistic effect is present. Evaluation was carried out using a scale from 0 to 100. 100 means no emergence of the plants, or complete destruction of at least the above-ground parts, and 0 means no damage or normal course of growth. A good herbicidal activity is given at values of at least 70, and very good herbicidal activity is given at values of at least 85. Post-Emergence Application of Herbicide A-1 (A-1) and Mesotrione (B) in Field Trials Herbicide A-1 (342 g/l) and mesotrione (100 g/l) were, together with addition of 0.5 v/v % MSO (methylated sed oil) as adjuvant, formulated in water as distribution medium (water volume 200 l/ha) and sprayed with commercial flat fan nozzles.

Echinochloa crus-galli [2] = test: Example 1 post-emergence greenhouse trial, ECHCG; conditions: growth stage 14, 21 DAT
Protocol: (§2) In the examples below, using the method of S. R. Colby (1967) “Calculating synergistic and antagonistic responses of herbicide combinations”, Weeds 15, p. 22ff., the value E, which is expected if the activity of the individual active compounds is only additive, was calculated: [formula] • where • X=percent activity using active herbicide A at an application rate a; • Y=percent activity using active herbicide B (e.g. mesotrione) at an application rate b; • E=expected activity (in %) by A+B at application rates a+b. If the value found experimentally is higher than the value E calculated according to Colby, a synergistic effect is present. The culture containers used were plastic pots containing loamy sand with approximately 3.0% of humus as substrate. The seeds of the test plants were sown separately for each species. For the post-emergence treatment, the test plants were grown to a plant height of from 3 to 15 cm, depending on the plant habit, and only then treated with the active compounds which had been suspended or emulsified in water. To this end, the test plants were either sown directly, and grown in the same containers, or they were first grown separately as seedlings and transplanted into the test containers a few days prior to treatment. Depending on the species, the plants were kept at 10-25° C. and 20-35° C., respectively. The test period extended over 2 to 4 weeks. During this time, the plants were tended and their response to the individual treatments was evaluated. Evaluation was carried out using a scale from 0 to 100. 100 means no emergence of the plants, or complete destruction of at least the above-ground parts, and 0 means no damage or normal course of growth. A good herbicidal activity is given at values of at least 70, and very good herbicidal activity is given at values of at least 85. Post-Emergence Application of Herbicide A-1 (A-1) and Mesotrione (B) in Greenhouse Trials Herbicide A-1 (50 g/l) and mesotrione (480 g/l) were, together with addition of 1 v/v % MSO (methylated sed oil) as adjuvant, formulated in water as distribution medium (water volume 200 l/ha) and sprayed with commercial flat fan nozzles.

Eleusine indica = test: Example 1 post-emergence greenhouse trial, ELEIN; conditions: growth stage 14, 21 DAT
Protocol: as §2

Brachiaria decumbens = test: Example 1 post-emergence greenhouse trial, BRADC; conditions: growth stage 13, 21 DAT, g ai/ha: A-1 4, B 62.5
Protocol: In the examples below, using the method of S. R. Colby (1967) “Calculating synergistic and antagonistic responses of herbicide combinations”, Weeds 15, p. 22ff., the value E, which is expected if the activity of the individual active compounds is only additive, was calculated: [formula] • where • X=percent activity using active herbicide A at an application rate a; • Y=percent activity using active herbicide B (e.g. mesotrione) at an application rate b; • E=expected activity (in %) by A+B at application rates a+b. If the value found experimentally is higher than the value E calculated according to Colby, a synergistic effect is present. The culture containers used were plastic pots containing loamy sand with approximately 3.0% of humus as substrate. The seeds of the test plants were sown separately for each species. For the post-emergence treatment, the test plants were grown to a plant height of from 3 to 15 cm, depending on the plant habit, and only then treated with the active compounds which had been suspended or emulsified in water. To this end, the test plants were either sown directly, and grown in the same containers, or they were first grown separately as seedlings and transplanted into the test containers a few days prior to treatment. […] During this time, the plants were tended and their response to the individual treatments was evaluated. […]

Digitaria sanguinalis = test: Example 2 post-emergence greenhouse trial, DIGSA; conditions: growth stage 12, 7 DAT
Protocol: In the examples below, using the method of S. R. Colby (1967) “Calculating synergistic and antagonistic responses of herbicide combinations”, Weeds 15, p. 22ff., the value E, which is expected if the activity of the individual active compounds is only additive, was calculated: [formula] • where • X=percent activity using active herbicide A at an application rate a; • Y=percent activity using active herbicide B (e.g. mesotrione) at an application rate b; • E=expected activity (in %) by A+B at application rates a+b. If the value found experimentally is higher than the value E calculated according to Colby, a synergistic effect is present. The culture containers used were plastic pots containing loamy sand with approximately 3.0% of humus as substrate. The seeds of the test plants were sown separately for each species. For the post-emergence treatment, the test plants were grown to a plant height of from 3 to 15 cm, depending on the plant habit, and only then treated with the active compounds which had been suspended or emulsified in water. To this end, the test plants were either sown directly, and grown in the same containers, or they were first grown separately as seedlings and transplanted into the test containers a few days prior to treatment. Depending on the species, the plants were kept at 10-25° C. and 20-35° C., respectively. The test period extended over 2 to 4 weeks. During this time, the plants were tended and their response to the individual treatments was evaluated. Evaluation was carried out using a scale from 0 to 100. 100 means no emergence of the plants, or complete destruction of at least the above-ground parts, and 0 means no damage or normal course of growth. A good herbicidal activity is given at values of at least 70, and very good herbicidal activity is given at values of at least 85. Post-Emergence Application of Herbicide A-1 (A-1) and Mesotrione (B) in Greenhouse Trials Herbicide A-1 (342 g/l) and mesotrione (480 g/l) were, together with addition of 0.5 v/v % MSO (methylated sed oil) as adjuvant, formulated in water as distribution medium (water volume 200 l/ha) and sprayed with commercial flat fan nozzles.

Amaranthus retroflexus = test: Example 3 post-emergence field trial, AMARE; conditions: height 10-12 cm; for % herbicidal activity A-1 / % herbicidal activity B: 42 DAT
Protocol: as §1

Senecio vulgaris = test: Example 3 post-emergence field trial, SENVU; conditions: height 25-30 cm, 7 DAT
Protocol: as §1

[3] = 7 DAT, g ai/ha: A-1 12.5, B 105
[4] = 7 DAT, g ai/ha: A-1 12.5, B 210
[5] = 21 DAT, g ai/ha: A-1 12.5, B 105
[6] = 28 DAT, g ai/ha: A-1 12.5, B 105
[7] = 21 DAT, g ai/ha: A-1 12.5, B 210

Structure (SMILES) | % herbicidal activity (Echinochloa crus-galli [1]; [3]) | % herbicidal activity (Echinochloa crus-galli [1]; [4]) | % herbicidal activity (Echinochloa crus-galli [1]; 7 DAT, g ai/ha: A-1 18, B 105) | % herbicidal activity (Echinochloa crus-galli [1]; 7 DAT, g ai/ha: A-1 18, B 210) | % herbicidal activity (Echinochloa crus-galli [1]; [5]) | % herbicidal activity (Echinochloa crus-galli [1]; 21 DAT, g ai/ha: A-1 18, B 105) | % herbicidal activity (Echinochloa crus-galli [1]; [6]) | % herbicidal activity (Echinochloa crus-galli [1]; 28 DAT, g ai/ha: A-1 18, B 105) | % herbicidal activity (Echinochloa crus-galli [2]; g ai/ha: A-1 1, B 62.5) | % herbicidal activity (Echinochloa crus-galli [2]; g ai/ha: A-1 4, B 62.5) | % herbicidal activity (Eleusine indica; g ai/ha: A-1 2, B 62.5) | % herbicidal activity (Eleusine indica; g ai/ha: A-1 4, B 62.5) | % herbicidal activity (Brachiaria decumbens) | % herbicidal activity (Digitaria sanguinalis; g ai/ha: A-1 0.25, B 50) | % herbicidal activity (Digitaria sanguinalis; g ai/ha: A-1 0.25, B 100) | % herbicidal activity (Digitaria sanguinalis; g ai/ha: A-1 0.5, B 50) | % herbicidal activity (Amaranthus retroflexus; [3]) | % herbicidal activity (Amaranthus retroflexus; [4]) | % herbicidal activity (Amaranthus retroflexus; 7 DAT, g ai/ha: A-1 18, B 105) | % herbicidal activity (Amaranthus retroflexus; 7 DAT, g ai/ha: A-1 18, B 210) | other results
CCOC(=O)COc1ccccc1Oc1nc(-n2c(=O)cc(C(F)(F)F)n(C)c2=O)c(F)cc1Cl [A-1, ethyl 2-[2-[[3-chloro-5-fluoro-6-[3-methyl-2,6-dioxo-4-(trifluoromethyl)pyrimidin-1-yl]-2-pyridyl]oxy]phenoxy]acetate] | 30% | 20% | 30% | 30% | 30% | 30% | 20% | 30% | 90% | 90% | 95% | 95% | 98% | 30% | 30% | 80% | 85% | 80% | 93% | 90% | % herbicidal activity A-1 (Amaranthus retroflexus; A-1 12.5 g ai/ha): 80%; % herbicidal activity A-1 (Amaranthus retroflexus; A-1 18 g ai/ha): 85%; % herbicidal activity (Amaranthus retroflexus; [7]): 80%; % herbicidal activity (Amaranthus retroflexus; 21 DAT, g ai/ha: A-1 18, B 105): 80%; % herbicidal activity (Amaranthus retroflexus; 21 DAT, g ai/ha: A-1 18, B 210): 75%; % herbicidal activity (Senecio vulgaris; g ai/ha: A-1 12.5, B 210): 85%; % herbicidal activity (Senecio vulgaris; g ai/ha: A-1 18, B 210): 88%
CS(=O)(=O)c1ccc(C(=O)C2C(=O)CCCC2=O)c([N+](=O)[O-])c1 [B, mesotrione] | 50% | 50% | 50% | 50% | 60% | 60% | 50% | 50% | 65% | 65% | 50% | 50% | 20% | 70% | 80% | 70% | 65% | 65% | 65% | 65% | % herbicidal activity B (Amaranthus retroflexus; B 210 g ai/ha (row with A-1 12.5)): 65%; % herbicidal activity B (Amaranthus retroflexus; B 210 g ai/ha (row with A-1 18)): 80%; % herbicidal activity (Amaranthus retroflexus; [7]): 65%; % herbicidal activity (Amaranthus retroflexus; 21 DAT, g ai/ha: A-1 18, B 105): 65%; % herbicidal activity (Amaranthus retroflexus; 21 DAT, g ai/ha: A-1 18, B 210): 65%; % herbicidal activity (Senecio vulgaris; g ai/ha: A-1 12.5, B 210): 40%; % herbicidal activity (Senecio vulgaris; g ai/ha: A-1 18, B 210): 40%
